From US9725463B2, “Substituted heterocyclic compounds as CRAC modulators” (LUPIN LIMITED, priority 2013, dated 2017)

What follows are compounds tested on IL-2 secretion by Jurkat T cells (assay: Inhibition of IL-2 secretion). Settings: Homo sapiens; Jurkat T cells stimulated with PHA, 20 to 24 hours, IL-2 by ELISA.
Format: cell-based
Procedure: The CRAC channel modulatory activity of the compounds were thus evaluated by measuring the secretion of IL-2 by antigen stimulated T-cells in vitro. Alternatively, such activity can also be evaluated by assay methods known to one skilled in the art.
Inhibition of IL-2 secretion: Jurkat T cells were seeded at a density of 0.5 to 1 million cells per well in RPMI medium. Test compounds from this invention were added to the cells at different concentrations. This was followed by the addition of PHA, a T cell mitogen after 10 minutes. The cells were then incubated for 20 to 24 hours in a CO2 incubator at 37° C. After incubation with the compounds, cells were centrifuged, the supernatant was collected and processed for ELISA to quantitate the amount of IL-2 secreted. A commercial ELISA kit (R&D Systems, Inc. Minneapolis, Minn., USA) was used to estimate the IL-2 concentrations. Amount of IL-2 secreted by cells stimulated with PHA was considered as a 100% maximal signal and the decrease in amount of IL-2 secreted by cells treated with the test compounds was expressed as percent inhibition of the maximal signal. The dose response data was analyzed using 4-parametric sigmoidal dose response (variable slope) curve-fit.

Row | SMILES | IC50
1 | Cc1cc2c(cc1-c1ccc(C(=O)Nc3c(F)cccc3F)s1)oc(=O)n2C [Example 75, N-(2,6-Difluorophenyl)-5-(3,5-dimethyl-2-oxo-2,3-dihydrobenzo[d]oxazol-6-yl)thiophene-2-carboxamide] | 25 to 50 nM
2 | Cc1cc2oc(=O)n(C(F)F)c2cc1-c1ccc(NC(=O)c2c(F)cccc2F)cn1 [Example 76, N-(6-(3-(Difluoromethyl)-6-methyl-2-oxo-2,3-dihydrobenzo[d]oxazol-5-yl)pyridin-3-yl)-2,6-difluorobenzamide] | 25 to 50 nM
3 | Cc1cc2oc(=O)n(C(F)F)c2cc1-c1cnc(NC(=O)c2c(F)cccc2F)cn1 [Example 78, N-(5-(3-(Difluoromethyl)-6-methyl-2-oxo-2,3-dihydrobenzo[d]oxazol-5-yl)pyrazin-2-yl)-2,6-difluorobenzamide] | < 25 nM
4 | CCc1cc2oc(=O)n(C)c2cc1-c1ccc(NC(=O)c2c(F)cccc2F)cn1 [Example 81, N-(6-(6-Ethyl-3-methyl-2-oxo-2,3-dihydrobenzo [d]oxazol-5-yl)pyridin-3-yl)-2,6-difluoro benzamide] | 50 to 100 nM
5 | CCc1cc2oc(=O)n(C)c2cc1-c1ccc(NC(=O)c2c(F)cccc2F)nc1 [Example 82, N-(5-(6-Ethyl-3-methyl-2-oxo-2,3-dihydrobenzo[d]oxazol-5-yl)pyridin-2-yl)-2,6-difluoro benzamide] | < 25 nM
6 | Cn1c(=O)oc2cc(C3CC3)c(-c3cnc(NC(=O)c4c(F)cccc4F)cn3)cc21 [Example 84, N-(5-(6-Cyclopropyl-3-methyl-2-oxo-2,3-dihydrobenzo [d]oxazol-5-yl)pyrazin-2-yl)-2,6-difluorobenzamide] | 25 to 50 nM
7 | CCc1cc2oc(=O)n(C)c2cc1-c1ccc(NC(=O)c2c(F)cccc2F)cc1 [Example 85, N-(4-(6-Ethyl-3-methyl-2-oxo-2,3-dihydrobenzo [d]oxazol-5-yl)phenyl)-2,6-difluorobenzamide] | < 25 nM
8 | CCc1cc2c(cc1-c1ccc(C(=O)Nc3c(F)cncc3F)cc1)oc(=O)n2C [Example 90, N-(3,5-Difluoropyridin-4-yl)-4-(5-ethyl-3-methyl-2-oxo-2,3-dihydrobenzo [d]oxazol-6-yl) benzamide] | 25 to 50 nM
9 | Cn1c(=O)oc2cc(C3CC3)c(-c3ccc(C(=O)Nc4c(F)cncc4F)cc3)cc21 [Example 93, 4-(6-Cyclopropyl-3-methyl-2-oxo-2,3-dihydrobenzo[d]oxazol-5-yl)-N-(3,5-difluoropyridin-4-yl)benzamide] | < 25 nM
10 | Cn1c(=O)oc2cc(C3CC3)c(-c3ccc(NC(=O)c4c(F)cccc4F)cc3)cc21 [Example 94, N-(4-(6-Cyclopropyl-3-methyl-2-oxo-2,3-dihydrobenzo [d]oxazol-5-yl)phenyl)-2,6-difluorobenzamide] | < 25 nM
11 | Cn1c(=O)oc2c(C3CC3)c(-c3ccc(NC(=O)c4c(F)cccc4Cl)cc3)ccc21 [Example 101, 2-Chloro-N-(4-(7-cyclopropyl-3-methyl-2-oxo-2,3-dihydrobenzo[d]oxazol-6-yl)phenyl)-6-fluorobenzamide] | < 25 nM
12 | CN1C(=O)COc2c1ncc(-c1ccc(NC(=O)c3c(F)cccc3F)cc1)c2C1CC1 [Example 112, N-(4-(8-Cyclopropyl-4-methyl-3-oxo-3,4-dihydro-2H-pyrido[3,2-b][1,4]oxazin-7-yl)phenyl)-2,6-difluorobenzamide] | 25 to 50 nM
13 | CN1C(=O)COc2cc(-c3ccc(NC(=O)c4c(F)cccc4F)nc3)c(C3CC3)cc21 [Example 115, N-(5-(6-Cyclopropyl-4-methyl-3-oxo-3,4-dihydro-2H-benzo[b][1,4]oxazin-7-yl)pyridin-2-yl)-2,6-difluorobenzamide] | < 25 nM
14 | CN1C(=O)COc2cc(-c3cnc(NC(=O)c4c(F)cccc4Cl)cn3)c(C3CC3)cc21 [Example 117, 2-Chloro-N-(5-(6-cyclopropyl-4-methyl-3-oxo-3,4-dihydro-2H-benzo[b][1,4]oxazin-7-yl)pyrazin-2-yl)-6-fluorobenzamide] | 25 to 50 nM

Next, values leading:

Row | IC50 | SMILES
15 | < 25 nM | Cc1cc2oc(=O)n(C(F)F)c2cc1-c1ccc(NC(=O)c2c(F)cccc2F)nc1 [Example 77, N-(5-(3-(Difluoromethyl)-6-methyl-2-oxo-2,3-dihydrobenzo[d]oxazol-5-yl)pyridin-2-yl)-2,6 difluorobenzamide]
16 | 50 to 100 nM | CCc1cc2oc(=O)n(C)c2cc1-c1cnc(NC(=O)c2c(F)cccc2F)cn1 [Example 80, N-(5-(6-Ethyl-3-methyl-2-oxo-2,3-dihydrobenzo[d]oxazol-5-yl)pyrazin-2-yl)-2,6-difluoro benzamide]
17 | 25 to 50 nM | Cn1c(=O)oc2cc(C3CC3)c(-c3ccc(NC(=O)c4c(F)cccc4F)nc3)cc21 [Example 83, N-(5-(6-Cyclopropyl-3-methyl-2-oxo-2,3-dihydrobenzo [d]oxazol-5-yl)pyridin-2-yl)-2,6-difluorobenzamide]
18 | 25 to 50 nM | Cn1c(=O)oc2cc(-c3cnc(NC(=O)c4c(F)cccc4F)cn3)c(C3CC3)nc21 [Example 86, N-(5-(5-Cyclopropyl-3-methyl-2-oxo-2,3-dihydrooxazolo[4,5-b]pyridin-6-yl)pyrazin-2-yl)-2,6-difluorobenzamide]
19 | < 25 nM | CCc1cc2oc(=O)n(C)c2cc1-c1ccc(C(=O)Nc2c(F)cccc2F)s1 [Example 88, N-(2,6-Difluorophenyl)-5-(6-ethyl-3-methyl-2-oxo-2,3-dihydrobenzo [d]oxazol-5-yl) thiophene-2-carboxamide]
20 | < 25 nM | Cn1c(=O)oc2cc(C3CC3)c(-c3ccc(C(=O)Nc4c(F)cccc4F)s3)cc21 [Example 89, 5-(6-Cyclopropyl-3-methyl-2-oxo-2,3-dihydrobenzo[d]oxazol-5-yl)-N-(2,6-difluorophenyl) thiophene-2-carboxamide]
21 | < 25 nM | CCc1cc2oc(=O)n(C)c2cc1-c1ccc(C(=O)Nc2c(F)cncc2F)cc1 [Example 92, N-(3,5-Difluoropyridin-4-yl)-4-(6-ethyl-3-methyl-2-oxo-2,3-dihydrobenzo [d]oxazol-5-yl) benzamide]
22 | < 25 nM | O=C(Nc1ccc(-c2ccc3c(oc(=O)n3C(F)F)c2C2CC2)cc1)c1c(F)cccc1F [Example 95, N-(4-(7-Cyclopropyl-3-(difluoromethyl)-2-oxo-2,3-dihydrobenzo[d]oxazol-6-yl)phenyl)-2,6-difluorobenzamide]
23 | 25 to 50 nM | Cn1c(=O)oc2c(C3CC3)c(-c3ccc(NCc4c(F)cccc4F)cc3)ccc21 [Example 100, 7-Cyclopropyl-6-(4-((2,6-difluorobenzyl)amino)phenyl)-3-methylbenzo [d]oxazol-2(3H)-one]
24 | 50 to 100 nM | Cn1c(=O)oc2c(C3CC3)c(-c3ccc(NC(=O)c4ccccc4Cl)cc3)ccc21 [Example 103, 2-Chloro-N-(4-(7-cyclopropyl-3-methyl-2-oxo-2,3-dihydrobenzo[d]oxazol-6-yl)phenyl)benzamide]
25 | < 25 nM | CN1C(=O)COc2c1ccc(-c1ccc(NC(=O)c3c(F)cccc3F)cc1)c2C1CC1 [Example 107, N-(4-(8-Cyclopropyl-4-methyl-3-oxo-3,4-dihydro-2H-benzo[b][1,4]oxazin-7-yl)phenyl)-2,6-difluorobenzamide]
26 | 50 to 100 nM | CN1C(=O)COc2c1ccc(-c1cnc(NC(=O)c3c(F)cccc3F)cn1)c2C1CC1 [Example 109, N-(5-(8-Cyclopropyl-4-methyl-3-oxo-3,4-dihydro-2H-benzo[b][1,4]oxazin-7-yl)pyrazin-2-yl)-2,6-difluorobenzamide]
27 | < 25 nM | CN1C(=O)COc2cc(-c3ccc(NC(=O)c4c(F)cccc4F)cc3)c(C3CC3)cc21 [Example 113, N-(4-(6-Cyclopropyl-4-methyl-3-oxo-3,4-dihydro-2H-benzo[b][1,4]oxazin-7-yl)phenyl)-2,6-difluorobenzamide]
28 | < 25 nM | CN1C(=O)COc2cc(-c3ccc(NCc4c(F)cccc4F)cc3)c(C3CC3)cc21 [Example 114, 6-Cyclopropyl-7-(4-((2,6-difluorobenzyl)amino)phenyl)-4-methyl-2H-benzo[b][1,4]oxazin-3(4H)-one]
29 | < 25 nM | CN1C(=O)COc2cc(-c3cnc(NC(=O)c4c(F)cccc4F)cn3)c(C3CC3)cc21 [Example 116, N-(5-(6-Cyclopropyl-4-methyl-3-oxo-3,4-dihydro-2H-benzo[b][1,4]oxazin-7-yl)pyrazin-2-yl)-2,6-difluorobenzamide]
30 | 100 to 500 nM | CN1C(=O)COc2cc(-c3ccc(C(=O)Nc4c(F)cncc4F)cc3)c(C3CC3)cc21 [Example 119, 4-(6-Cyclopropyl-4-methyl-3-oxo-3,4-dihydro-2H-benzo[b][1,4]oxazin-7-yl)-N-(3,5-difluoropyridin-4-yl)benzamide]
31 | < 25 nM | CCc1cc2c(cc1-c1cnc(NC(=O)c3c(F)cccc3F)cn1)OCC(=O)N2C [Example 121, N-(5-(6-Ethyl-4-methyl-3-oxo-3,4-dihydro-2H-benzo[b][1,4]oxazin-7-yl)pyrazin-2-yl)-2,6-difluorobenzamide]
32 | < 25 nM | CCc1cc2c(cc1-c1ccc(NC(=O)c3c(F)cccc3F)nc1)OCC(=O)N2C [Example 122, N-(5-(6-Ethyl-4-methyl-3-oxo-3,4-dihydro-2H-benzo[b][1,4]oxazin-7-yl)pyridin-2-yl)-2,6-difluorobenzamide]
33 | < 25 nM | Cc1cc2c(cc1-c1ccc(NC(=O)c3c(F)cccc3F)cc1)OCC(=O)N2C [Example 123, N-(4-(4,6-Dimethyl-3-oxo-3,4-dihydro-2H-benzo[b][1,4]oxazin-7-yl)phenyl)-2,6-difluorobenzamide]
